Measurements reported in patent US20140066444A1, “Method of Treating Cancer” (Exelixis, Inc., priority 2010, published 2014).

What was measured:
[1] = system: MET and VEGFR signaling; experiment: suppression of MET and VEGFR signaling
[2] = system: endothelial cells and tumor cells; experiment: induction of apoptosis
[3] = system: pancreatic neuroendocrine tumor model; experiment: murine pancreatic neuroendocrine tumor model
[4] = system: xenograft tumor models; experiment: xenograft tumor models
[5] = system: metastatic castration-resistant prostate cancer (CRPC) with bone metastases; experiment: case studies: metastatic CRPC patients treated with Compound 1; type: in vivo, human; details: three metastatic CRPC patients
Excerpt: Bone metastases are present in 90% of patients with castration-resistant prostate cancer (CRPC), causing significant morbidity and mortality.

[6] = oral bioavailability; details: in vivo
[7] = gravimetric vapor sorption (GVS) study; type: physicochemical; details: 25° C. and 90% humidity
Procedure: A gravimetric vapor sorption (GVS) study was run using a standard procedure. Samples were run on a dynamic vapor sorption analyzer (Surface Measurement Systems) running DVSCFR software. Sample sizes were typically 10 mg. A moisture adsorption desorption isotherm was performed as outlined below. The standard isotherm experiment, performed at 25° C., is a two-cycle run, starting at 40% RH, increasing humidity to 90% RH, decreasing humidity to 0% RH, increasing humidity again to 90% RH, and finally decreasing humidity to 0% RH in 10% RH intervals.

| Structure (SMILES) | MET and VEGFR signaling [1] | apoptosis of endothelial cells and tumor cells [2] | overall survival [3] | tumor invasiveness and metastasis [3] | tumor regression [4] | bone lesions [5] | bone pain [5] | measurable disease [5] | total serum alkaline phosphatase (tALP) levels [5] | oral bioavailability [6] | weight gain (GVS) [7] [%] |
| --- | --- | --- | --- | --- | --- | --- | --- | --- | --- | --- | --- |
| COc1cc2c(Oc3ccc(NC(=O)C4(C(=O)Nc5ccc(F)cc5)CC4)cc3F)ccnc2cc1OCCCN1CCOCC1 [Compound 1] | suppresses | rapidly induces apoptosis | substantially improves | significantly reduces | causes tumor regression | near complete resolution of bone lesions | marked reduction | reduction in measurable disease | marked reduction | orally bioavailable |  |
| COc1cc2c(Oc3ccc(NC(=O)C4(C(=O)Nc5ccc(F)cc5)CC4)cc3F)ccnc2cc1OCCCN1CCOCC1.O [crystalline Compound 1, N-[3-fluoro-4-({6-(methyloxy)-7-[(3-morpholin-4-ylpropyl)oxy]quinolin-4-yl}oxy)phenyl]-N′-(4-fluorophenyl)cyclopropane-1,1-dicarboxamide crystalline hydrate] |  |  |  |  |  |  |  |  |  |  | 2.5 |
